Experimental data from the supplement of paper PMC10307832.

Columns and labels:
Experiment in all cases: relative viability (nuclei count vs DMSO), 5 days (fraction); higher = more cells survive
[1] = compound: N#CC1(c2ccc(NC(=O)c3cccnc3NCc3ccncc3)cc2)CCCC1 [Apatinib] + C[C@]1(O)C[C@@H](c2nc(-c3ccc4ccc(-c5ccccc5)nc4c3)c3c(N)nccn32)C1 [Linsitinib] (partner 1 µM)
Outline: (§1)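 A single step with final 0.05% Triton X-100, 1% formaldehyde and 1 ug/ml Hoechst fixed the cells and stained nuclei 5 days after treatment. Lung cancer cell lines in 1536-well plates had been treated by pin tool the day after seeding with one drug alone or a fixed anchor-drug dose plus five library-drug doses (not always all listed) in √10 steps, and nuclei were counted on 4× images. Relative viability is the ratio of nuclei in treated wells to nuclei in vehicle wells, taken as the median of duplicate plates.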

[2] = compound: CN(C)C(=N)NC(=N)N [Metformin] + CC1(C)CCC(c2ccc(Cl)cc2)=C(CN2CCN(c3ccc(C(=O)NS(=O)(=O)c4ccc(N[C@H](CCN5CCOCC5)CSc5ccccc5)c(S(=O)(=O)C(F)(F)F)c4)cc3)CC2)C1 [Navitoclax] (partner 0.5 µM)
Outline: as §1

[3] = compound: N#CC1(c2ccc(NC(=O)c3cccnc3NCc3ccncc3)cc2)CCCC1 [Apatinib] + C[C@@H](Oc1cc(-c2cnn(C3CCNCC3)c2)cnc1N)c1c(Cl)ccc(F)c1Cl [Crizotinib] (partner 1 µM)
Outline: as §1

[4] = compound: CN(C)C(=N)NC(=N)N [Metformin] + CC(=O)c1c(C)c2cnc(Nc3ccc(N4CCNCC4)cn3)nc2n(C2CCCC2)c1=O [Palbociclib] (partner 0.5 µM)
Outline: as §1

Cell Line | relative viability ([1]; first compound 0.08 µM) | relative viability ([1]; first compound 0.253 µM) | relative viability ([1]; first compound 0.8 µM) | relative viability ([1]; first compound 2.53 µM) | relative viability ([1]; first compound 8 µM) | relative viability ([2]; first compound 10 µM) | relative viability ([2]; first compound 31.62 µM) | relative viability ([2]; first compound 100 µM) | relative viability ([2]; first compound 316.23 µM) | relative viability ([2]; first compound 1000 µM) | relative viability ([3]; first compound 0.08 µM) | relative viability ([3]; first compound 0.253 µM) | relative viability ([3]; first compound 0.8 µM) | relative viability ([3]; first compound 2.53 µM) | relative viability ([3]; first compound 8 µM) | relative viability ([4]; first compound 10 µM) | relative viability ([4]; first compound 31.62 µM) | relative viability ([4]; first compound 100 µM) | relative viability ([4]; first compound 316.23 µM) | relative viability ([4]; first compound 1000 µM)
LOU-NH91 | 0.94 | 0.916 | 0.717 | 0.845 | 0.777 | 0.867 | 0.717 | 0.751 | 0.766 | 0.767 | 0.76 | 0.751 | 0.722 | 0.69 | 0.629 | 0.524 | 0.523 | 0.441 | 0.518 | 0.517
LXF-289 | 0.974 | 0.964 | 0.96 | 0.941 | 0.896 | 0.912 | 0.918 | 0.939 | 0.914 | 0.901 | 0.797 | 0.817 | 0.778 | 0.749 | 0.742 | 0.516 | 0.557 | 0.568 | 0.535 | 0.564
NCI-H650 | 0.787 | 0.871 | 0.756 | 0.734 | 0.663 |  |  |  |  |  | 0.664 | 0.843 | 0.676 | 0.562 | 0.43 | 0.33 | 0.278 | 0.385 | 0.326 | 0.348
NCI-H1975 | 0.988 | 0.954 | 0.931 | 0.854 | 0.888 | 1.23 | 1.32 | 1.28 | 1 | 1.23 | 1 | 0.967 | 0.78 | 0.814 | 0.78 | 0.438 | 0.682 | 0.584 | 0.591 | 0.644
ChaGo-K-1 |  |  |  |  |  | 1 | 1.42 | 0.95 | 0.93 | 1.24 |  | 1.09 | 1.1 | 1.05 | 0.901 | 0.92 | 0.897 | 0.957 | 0.716 | 0.967
COR-L 105 | 0.994 | 1.15 | 0.705 | 0.985 | 0.676 | 0.812 | 0.923 | 0.843 | 0.654 | 0.571 | 0.871 | 0.696 | 0.796 | 0.727 | 0.586 | 0.419 | 0.44 | 0.464 | 0.433 | 0.441
A-427 | 1.1 | 1.06 | 1.07 | 1.11 | 1.09 | 1.01 | 1 | 0.969 | 0.978 | 0.887 | 0.902 | 0.969 | 0.919 | 0.808 | 0.705 | 0.501 | 0.546 | 0.516 | 0.53 | 0.389
